Assay: recombinant UMI read abundance after kanamycin selection (control-corrected) (log10(CPM+1)); higher = more efficient recombination; extreme values may be limits of the assay; sequences stand for … in AGTGCAGAGAAAATCGGCCAGTTTTCTCTGCCTGCAGTCCGCATGCCGTGGGACCCCTTGGGTTCTAACCTGTTGCCTAGATTTATGCAGCGGACTGCCTTTCTCCCAAAGTGATAAACCGG…AGGTTGGTTTCACT; site = the 11-nt donor
Method in brief: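 In a pooled Escherichia coli screen for the IS621 bridge recombinase, donor and donor-binding-loop pairs were each placed with a 12-nt UMI on a plasmid bearing a promoterless kanamycin gene. This library was co-electroporated with a target plasmid encoding a fixed target and T7-inducible recombinase, and cells were plated either on IPTG (0.07 mM) plus kanamycin or without selection, in two replicates each. Recombinant UMIs were PCR-amplified across the donor–target junction and sequenced, and counts were converted to CPM, averaged over replicates, scaled by control-derived factors and reported as log10(CPM+1).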
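Further: IS621 bridge recombinase in Escherichia coli cells against a fixed T5 target plasmid.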

| Sequence | recombinant UMI read abundance (log10) |
| --- | --- |
| TGCTAGGCATGGACCGGTTTTCCCGGTAATCCGTATTTGGG (site TGCTAGGCTTC) | 0.00914 |
| CAAGCGCCATGGACCGGTTTTCCCGGTAATCCGTATTTGTA (site CAAGCGCCTTA) | 1.49 |
| CCTTATACATGGACCGGTTTTCCCGGTAATCCGTATTTGGC (site CCTAATACTGC) | 0 |
| ATTGAGACATGGACCGGTTTTCCCGGTAATCCGTATTTGGT (site ATTGAGCCTAC) | 0.0258 |
| AGAAAGGCATGGACCGGTTTTCCCGGTAATCCGTATTTGTT (site AGAAAGGCTAT) | 0.97 |
| ACATGCGCATGGACCGGTTTTCCCGGTAATCCGTATTTGCA (site ACATGCGCTTG) | 2.86 |
| CTAGTATCATGGACCGGTTTTCCCGGTAATCCGTATTTGAC (site CTAGCATCTGG) | 0 |
| GCGTTTACATGGACCGGTTTTCCCGGTAATCCGTATTTGCT (site GCGTTTACTAG) | 1.6 |
| CGGGTACCATGGACCGGTTTTCCCGGTAATCCGTATTTGTA (site CGGGTACCTTA) | 0.00704 |
| CGATCGTCATGGACCGGTTTTCCCGGTAATCCGTATTTGTT (site CGATCGTCTAA) | 1.25 |
| TATAGCGCATGGACCGGTTTTCCCGGTAATCCGTATTTGTC (site TATAGCGCTGA) | 2.62 |
| CTAGCATCATGGACCGGTTTTCCCGGTAATCCGTATTTGAC (site CTAGCATCTGT) | 3.04 |
| GGCTAGGCATGGACCGGTTTTCCCGGTAATCCGTATTTGGT (site TGCTAGGCTAC) | 0.0118 |
| TAATGATCATGGACCGGTTTTCCCGGTAATCCGTATTTGGG (site TAATGAACTCC) | 0.0159 |
| TAGTCAGCATGGACCGGTTTTCCCGGTAATCCGTATTTGCT (site TAGTCAGCTAG) | 0.957 |
| CACGCGCCATGGACCGGTTTTCCCGGTAATCCGTATTTGTG (site CACGCGCCTCA) | 0.00403 |
| CAAGCCCCATGGACCGGTTTTCCCGGTAATCCGTATTTGTG (site CAAGCGCCTCA) | 0.0132 |
| TACAGCTCATGGACCGGTTTTCCCGGTAATCCGTATTTGGA (site TACAGCTCTTC) | 0.841 |
| CCAGTAGCATGGACCGGTTTTCCCGGTAATCCGTATTTGAC (site CTAGTATCTGT) | 0 |

| Sequence | recombinant UMI read abundance (log10) |
| --- | --- |
| GATCAAACATGGACCGGTTTTCCCGGTAATCCGTATTTGAA (site GATCAAACTTT) | 0 |
| AGAAAAACATGGACCGGTTTTCCCGGTAATCCGTATTTGCA (site AGAAAAACTTG) | 2.23 |
| TGTGGTACATGGACCGGTTTTCCCGGTAATCCGTATTTGGC (site TGTGGTACTGC) | 0.698 |
| TGCTGGGCATGGACCGGTTTTCCCGGTAATCCGTATTTGGT (site TGCTAGGCTAC) | 0.109 |
| AGAAAGGCATGGACCGGTTTTCCCGGTAATCCGTATTTGGT (site AGAAAGGCTAC) | 0.881 |
| CTAGTATCATGGACCGGTTTTCCCGGTAATCCGTATTTGAC (site CTAGTATCTGT) | 2.66 |
| CAATGCTCATGGACCGGTTTTCCCGGTAATCCGTATTTGAC (site CAATGCTCTGT) | 3.03 |
| TGGGCACCATGGACCGGTTTTCCCGGTAATCCGTATTTGCA (site CGGGCACCTTG) | 0.00478 |
| TAATGGGCATGGACCGGTTTTCCCGGTAATCCGTATTTGGG (site TAATGAGCTCC) | 0.0138 |
| CCTAAGACATGGACCGGTTTTCCCGGTAATCCGTATTTGGC (site CCTAAGACTGC) | 0 |
| GAAGATTCATGGACCGGTTTTCCCGGTAATCCGTATTTGTA (site GAAGATTCTGA) | 0 |
| ACTCCAGCATGGACCGGTTTTCCCGGTAATCCGTATTTGTG (site ACTCCAGCTCA) | 0.753 |
| ATCATTGCATGGACCGGTTTTCCCGGTAATCCGTATTTGAC (site ATCATTGCTGT) | 1.48 |
| AGGAAGTCATGGACCGGTTTTCCCGGTAATCCGTATTTGTC (site AGGAAGTCTGA) | 3.14 |
| TCGCCTTCATGGACCGGTTTTCCCGGTAATCCGTATTTGGT (site TTGCCTTCTAC) | 0.00786 |
| CACTCTTCATGGACCGGTTTTCCCGGTAATCCGTATTTGTT (site CACTCTTCTAA) | 1.58 |
| CGTGGAACATGGACCGGTTTTCCCGGTAATCCGTATTTGAT (site CGTGGAACTAC) | 0 |
| AGGAAGGCATGGACCGGTTTTCCCGGTAATCCGTATTTGCT (site AGGAAGGCTAG) | 2.27 |

— the supplement of paper PMC11208160
